Literature values in patent publication US20210290563A1, “COMPOSITIONS AND METHODS FOR TREATING NEUROP[…]” (BIONICHE GLOBAL DEVELOPMENT, LLC, priority 2017, published 2021).
Where two headings read alike, the source gives them in different places.

Columns and labels:
[1] = not given; remark: listed apart in the source

Row | SMILES | solubility in water | bioavailability estimates ([1]; buccal administration) | bioavailability estimates ([1]; intramuscular administration) | bioavailability estimates ([1]; intranasal administration) | bioavailability estimates ([1]; intravenous administration) | bioavailability estimates ([1]; oral administration) | bioavailability estimates ([1]; rectal administration) | bioavailability estimates ([1]; transdermal administration)
1 | CC(C)c1cccc(C(C)C)c1OCOP(=O)(O)O [Fospropofol disodium] | water-soluble |  |  |  |  |  |  | 
2 | CC(C)c1cccc(C(C)C)c1O [Propofol, 2,6-diisopropylphenol] | only sparingly soluble in water | ~50% | ~93% | 25-50% | ~100% | 13-27% | ~25% | ~10%
